One compound from patent US20250241901A1, “ACTIVATION OF MNRR1 / CHCHD2 AS A THERAPEUTIC TARGET FOR MITOCHONDRIA ASSOCIATED DISORDERS” (Wayne State University, priority 2024, published 2025) can be followed below.

Assay [1] concerns MNRR1. The assay is described as follows: MNRR1 transcript and protein levels in decidua and placenta of LPS-injected dams. The format is in vivo, mouse. The procedure:
FIGS. 2A-2F. Nitazoxanide prevents preterm delivery and improves neonatal mortality in vivo. (FIG. 2A) Schematic illustration depicting the administration of nitazoxanide (marketed under the commercial name Alinia) and LPS in the murine model of preterm birth. (FIG. 2B) Gestational length of mice was obtained using video-monitoring until delivery (n=6-8 animals). (FIG. 2C) Neonatal mortality was determined by calculating the number of dead pups over total litter size (n=6-8 animals). […] No pups from LPS-injected dams survived beyond week 0 of birth. (FIG. 2E) MNRR1 transcript levels were measured in mouse decidual tissue (17.5 dpc). Actin was used as a housekeeping gene to normalize expression (n=4 animals for all except PBS+N, where n=3). (FIG. 2F) Equal amounts of whole placental lysates were separated on an SDS-PAGE gel and probed for MNRR1 levels. Actin was used as a loading control. Gel is representative of data obtained from 2 animals. […]
Real-time polymerase chain reaction: Total cellular RNA was extracted from mouse placental tissues or HTR8 cells by using a RNeasy Plus Mini Kit (Qiagen, Germantown, MD, USA), according to the manufacturer's instructions. […] Transcript levels were measured by real-time PCR by using SYBR green on an ABI 7500 system. […]

The subject of assay [2] is MNRR1. The assay is described as follows: MNRR1 immunofluorescence in MDAMB468 cells. The format is cell-based, human. To be noted: MDAMB468, 10 μM, 24 h. The procedure: FIGS. 4A-4B: High throughput screen to identify MNRR1 activators. FIG. 4A: Campaign view representing compounds that activate MNRR1. Control levels are represented as a dotted line. Each compounds is shown as a small dot and nitazoxanide is highlighted as a large dot. FIG. 4B: MDAMB468 cells treated with Vehicle (DMSO) or nitazoxanide (10 μM) for 24 h were immunostained (MNRR1=orange, DAPI=blue) and imaged at 63λ using a confocal microscope. The scale bar represents 200 μm.
Immunofluorescence: Cells plated on glass cover slips were fixed with 3.7% formaldehyde (prepared in 1× PBS) at room temperature for 15 min, followed by permeabilization with 0.15% Triton X-100 (prepared in distilled water) for 2 min, and then blocked with 5% bovine serum albumin (BSA) (prepared in 1× PBS, 0.1% TWEEN-20 (PBST)) for 1 h at room temperature. Cells were washed with PBST then incubated for 1 h at room temperature in primary antibody solution containing Coralite® 594 conjugated mouse monoclonal anti-CHCHD2 IgG (1:100, Proteintech, Cat. No. CL594-66302) prepared in PBST. Cells were washed 3 times with PBST for 5 min each and mounted with Vectashield vibrance with DAPI (Cat. #H-1800-10, Vector Labs, Newark, CA). […] Corrected total fluorescence for each field to determine MNRR1 content was calculated using FIJI (National Institutes of Health).

As to `CC(=O)Oc1ccccc1C(=O)Nc1ncc([N+](=O)[O-])s1` [nitazoxanide, Nitazoxanide], in the assay on MNRR1 [1] (17.5 dpc), the “MNRR1 transcript level in the decidua” value was “restored the LPS-induced reduction of MNRR1”. Also, the “MNRR1 protein level in the placenta” value with MNRR1 [1] (whole placental lysates) is “restored the LPS-induced reduction of MNRR1”. Also, the MNRR1 level entry in the assay on MNRR1 [2] is “increase of MNRR1”.
